The source of these data is ChEMBL document CHEMBL1201862, “PubChem BioAssay data set” (2004).

Common to all, as to assay: NCI-60 cell line screen, 48 h
Experiment [1] deals with MOLT-4.
Experiment [2] deals with OVCAR-4.
Experiment [3] relates to HCT-15.
Experiment [4] relates to TK-10.
For experiment [5], the system named is SF-295.
The test system of experiment [6] is SF-268.
In experiment [7] the test system is SNB-75.
Experiment [8] concerns HOP-92.
Experiment [9] deals with HCC 2998.
For experiment [10], the system named is NCI-H460.
Experiment [11] relates to OVCAR-3.
The subject of experiment [12] is RPMI-8226.
Experiment [13] deals with IGROV-1.
The subject of experiment [14] is SK-MEL-2.
Experiment [15] has as its system Malme-3M.
Experiment [16] deals with SF-539.
In experiment [17] the test system is M14.

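A five-concentration, 48-hour dose response in 96-well plates underlies each endpoint, interpolated linearly between surrounding concentrations. Here, GI50 denotes the concentration required for 50% inhibition of growth.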 The source made the active and inactive calls. Rule as the data show it: active = GI50 up to about 1.1 µM and inactive = higher. A value given as a limit tells only on which side of the number the result lay.

For the compound `CC1=NN2C(c3ccc(C)cc3)=CSC2=NC(C)(C)C1`, the GI50 in experiment [1] is > 100 µM (inactive); in experiment [2] it was > 100 µM (inactive); in experiment [3], greater than 100 µM; in experiment [4], > 100 µM (inactive); in [5], > 100 µM (inactive); in experiment [6], > 100 µM (inactive). The GI50 in [7], in [8], in [9], in experiment [10], in experiment [11] and in [12] was > 100 µM (inactive) each time. Besides, the GI50 in [13], in experiment [14], in [15], in experiment [16] and in experiment [17] was > 100 µM (inactive) in each case.
For `CCN(C(C)=N)c1ccccc1`, the GI50 in experiment [1] is 72.6 µM (inactive); in experiment [2], 66.8 µM (inactive); in [3] it was greater than 100 µM; in experiment [4], > 100 µM (inactive); in experiment [5] it was 43.5 µM (inactive); in experiment [6], > 100 µM (inactive). Moreover, the GI50 was 37.5 µM (inactive) in experiment [7]; 60.4 µM (inactive) in [8]; > 100 µM (inactive) in experiment [9]; > 100 µM (inactive) in [10]; > 100 µM (inactive) in experiment [11]; 27 µM (inactive) in [12]. Moreover, the GI50 in [13], in experiment [14], in experiment [15], in [16] and in experiment [17] was > 100 µM (inactive) in each case.
Turning to `Nc1ccc(C(=O)N/C(=C\c2ccc3c(c2)OCO3)c2nc3ccc4c(c3[nH]2)C(=O)c2ccccc2C4=O)cc1`, the GI50 in experiment [1] was 4.75 µM (inactive); in experiment [2], 50.5 µM (inactive); in [3], 42.2 µM; in experiment [4], 23.1 µM (inactive); in experiment [5], 41.7 µM (inactive); in [6] it was 12.4 µM (inactive). The GI50 was 19.9 µM (inactive) in experiment [7]; 17.5 µM (inactive) in experiment [8]; 43.3 µM (inactive) in [9]; 26.4 µM (inactive) in experiment [10]; 32.9 µM (inactive) in [11]; 3.68 µM (inactive) in experiment [12]. Also, the GI50 in [13] is 17.5 µM (inactive); in experiment [14] it was 21.1 µM (inactive); in experiment [15] it was 61.8 µM (inactive); in experiment [16], 21.6 µM (inactive); in [17] it was 37.8 µM (inactive).
Regarding `NCc1c(C(N)=O)ncn1Cc1ccccc1`, the GI50 is > 100 µM (inactive) in [1]; > 100 µM (inactive) in experiment [2]; greater than 100 µM in experiment [3]; > 100 µM (inactive) in [4]; > 100 µM (inactive) in [5]; > 100 µM (inactive) in experiment [7]. In addition, the GI50 in [8] was 65.9 µM (inactive); in experiment [9] it was > 100 µM (inactive); in [10], > 100 µM (inactive); in experiment [11], > 100 µM (inactive); in experiment [12], > 100 µM (inactive); in [13], > 100 µM (inactive). Also, the GI50 in experiment [16] and in experiment [17] was > 100 µM (inactive) in each case.
Take `C[C@]12CCC3[C@@H](CC[C@@H]4c5nonc5CC[C@]34C)C1CCC(=O)N2` (stereo partly specified): the GI50 is > 100 µM (inactive) in experiment [1]; > 100 µM (inactive) in experiment [2]; greater than 100 µM in [3]; > 100 µM (inactive) in experiment [4]; > 100 µM (inactive) in [5]; > 100 µM (inactive) in experiment [6]. Moreover, the GI50 is 55 µM (inactive) in experiment [7]; 95.7 µM (inactive) in experiment [8]; > 100 µM (inactive) in [10]; > 100 µM (inactive) in [11]; 67.9 µM (inactive) in experiment [12]; > 100 µM (inactive) in experiment [13]. For the same compound, the GI50 in experiment [14] is 0.356 µM (active); in experiment [15], > 100 µM (inactive); in [16] it was > 100 µM (inactive); in experiment [17] it was > 100 µM (inactive).
As to `CC(=O)NNc1nc(C)c(C(/C=C/c2ccc(Cl)cc2)=N/NC(=O)C[N+](C)(C)C)s1`, the GI50 in experiment [1] was > 100 µM (inactive); in experiment [2] it was > 100 µM (inactive); in [3] it was greater than 100 µM; in experiment [4], > 100 µM (inactive); in experiment [5] it was > 100 µM (inactive); in experiment [6], > 100 µM (inactive). Moreover, the GI50 in experiment [7], in [8], in experiment [9], in experiment [10], in experiment [11] and in [13] was > 100 µM (inactive) in each case. In addition, the GI50 in experiment [14], in [15], in experiment [16] and in [17] was > 100 µM (inactive) throughout.
For the compound `Nc1nc(N)c(-c2ccccc2)c(C(=O)Nc2nccs2)n1`, the GI50 was > 100 µM (inactive) in experiment [1]; > 100 µM (inactive) in experiment [2]; greater than 100 µM in experiment [3]; > 100 µM (inactive) in experiment [4]; > 100 µM (inactive) in experiment [5]; > 100 µM (inactive) in experiment [6]. The GI50 in experiment [8], in [9], in experiment [10], in experiment [11], in experiment [13] and in experiment [14] was > 100 µM (inactive) throughout. Besides, the GI50 in experiment [15], in experiment [16] and in experiment [17] was > 100 µM (inactive) in each case.
For the compound `COC(=O)C1=C(C(=O)OC)C2=S(SC3=C2CCCC3)S1` (stereo unspecified), the GI50 was 12 µM (inactive) in experiment [1]; 19 µM (inactive) in [2]; 13.3 µM in [3]; 30.1 µM (inactive) in experiment [4]; 46.1 µM (inactive) in experiment [5]; 37.6 µM (inactive) in experiment [6]. Also, the GI50 in experiment [7] is 12.1 µM (inactive); in experiment [8], 6.05 µM (inactive); in [9], > 100 µM (inactive); in [10] it was 28.1 µM (inactive); in [11] it was 16.4 µM (inactive); in experiment [12], 3.26 µM (inactive). In addition, the GI50 in experiment [13] was 85.7 µM (inactive); in [14] it was 23.1 µM (inactive); in [15] it was 20.1 µM (inactive); in [16] it was 25.1 µM (inactive); in [17], 24.8 µM (inactive).
Consider `COc1ccc(/C=C/C(=O)C(C)(C)CN2CCCCC2)cc1`, for which the GI50 in [1] is 21.8 µM (inactive); in [2], 7.36 µM (inactive); in [3] it was 16.3 µM; in experiment [4], 20.8 µM (inactive); in experiment [5], 38.1 µM (inactive); in experiment [6], 22.1 µM (inactive). For the same compound, the GI50 in [7] is 12.4 µM (inactive); in experiment [9], 18.3 µM (inactive); in [10], 18.7 µM (inactive); in experiment [11], 18.2 µM (inactive); in experiment [12] it was 18.2 µM (inactive); in [13], 26.2 µM (inactive). Further, the GI50 is 16.3 µM (inactive) in experiment [14], 22.2 µM (inactive) in experiment [15], 19.8 µM (inactive) in [16] and 18.2 µM (inactive) in experiment [17].
On to `[O-]/[N+](=C\c1ccccc1)[C@H](COCc1ccccc1)c1ccccc1`, for which the GI50 is 36.5 µM (inactive) in experiment [1]; > 100 µM (inactive) in [4]; 36 µM (inactive) in experiment [5]; 55.2 µM (inactive) in [6]; 74.3 µM (inactive) in experiment [7]; 24.8 µM (inactive) in experiment [8]. In addition, the GI50 in [9] is > 100 µM (inactive); in experiment [10] it was > 100 µM (inactive); in experiment [11], 27.6 µM (inactive); in experiment [12], 30.2 µM (inactive); in experiment [13], > 100 µM (inactive); in [14], 27.3 µM (inactive). Moreover, the GI50 in experiment [15] and in [16] was > 100 µM (inactive) each time.
`CC(=O)N(C)c1ccc2c(ccc[n+]2[O-])c1[N+](=O)[O-]`: the GI50 in [1] was > 100 µM (inactive); in experiment [2], > 100 µM (inactive); in experiment [3], greater than 100 µM; in experiment [4], > 100 µM (inactive); in experiment [5], > 100 µM (inactive); in experiment [6] it was > 100 µM (inactive). Also, the GI50 in [7], in experiment [9], in experiment [10], in experiment [11], in experiment [12] and in experiment [13] was > 100 µM (inactive) each time. The GI50 in [14], in experiment [15], in experiment [16] and in [17] was > 100 µM (inactive) each time.
Take `O=C(/C=C\c1cccc2ccccc12)c1ccc(Cl)cc1Cl`: the GI50 in experiment [1] is 28.5 µM (inactive); in experiment [2], 43.6 µM (inactive); in experiment [3], 13.7 µM; in experiment [4] it was 97.1 µM (inactive); in [5] it was 20.5 µM (inactive); in [6], 19.6 µM (inactive). Further, the GI50 in experiment [7] is > 100 µM (inactive); in experiment [9], 32.4 µM (inactive); in experiment [10], 23.4 µM (inactive); in [11] it was 20.2 µM (inactive); in [12], 18 µM (inactive); in experiment [13], 39.7 µM (inactive). The figures for the GI50 in experiment [15], in experiment [16] and in experiment [17] were 26.7 µM (inactive), 25.8 µM (inactive) and 19.4 µM (inactive), respectively.
Turning to `O=[N+]([O-])c1nccn1CC(O)c1ccccc1` (stereo unspecified), the GI50 in experiment [1] was > 100 µM (inactive); in [2], > 100 µM (inactive); in experiment [3], greater than 100 µM; in experiment [4] it was > 100 µM (inactive); in experiment [5], > 100 µM (inactive); in experiment [6], > 100 µM (inactive). Moreover, the GI50 in [7], in experiment [8], in experiment [10], in experiment [11], in [12] and in [13] was > 100 µM (inactive) in each case. The GI50 in experiment [14], in experiment [15], in [16] and in [17] was > 100 µM (inactive) in each case.
